Data from patent US10273235B2, “Compositions and methods for inhibiting β-lactamase” (LegoChem Biosciences, Inc., priority 2015, dated 2019).
Counter-ions that a name gives are not always drawn.

Tests used:
E. coli TOPDXA048 = test: MIC of strain used for extraction of enzymes, E. coli TOPDXA048 (OXA-48, TEM-116, AmpC (NC_000913)); type: cell-based
Mouse pharmacokinetics = type: in vivo, ICR mouse; settings: IV, 50 mg/kg, plasma
Protocol: The pharmacokinetics values were evaluated in a mouse model. The test compound (50 mg/kg) was injected into the tail vein of 8 week old ICR mouse, weighing approximately 26-30 g. […] Lab conditions were temperature of 22±3° C. and humidity of 50±20%.

E. coli K0519020 = test: MIC of strain used for extraction of enzymes, E. coli K0519020 (CTX-M-15, TEM-1, OXA-1, AmpC (NC_000913)); type: cell-based
[1] = target: T1, NDM-1 β-lactamase (class B) (Klebsiella pneumoniae, UniProt C7C422); test: Inhibitory activity against β-lactamases (nitrocefin), NDM-1; type: biochemical; settings: 100 μM nitrocefin, 30° C., pH 6.8
T1 construct: MICs of bacterial strains used for extraction of enzymes; endogenous in cells; host or cells: bacterial strain carrying NDM-1 (E. coli according to the earlier reading)
Protocol: (§1) More diluted stocks were prepared as necessary. Enzyme activity was determined by monitoring the change of absorbance at 492 nm using the characteristic molecular extinction coefficient (Δε492=17,400 M^−1 cm^−1) of nitrocefin by a Shimazu UV-1650PC spectrophotometer. The nitrocefin was purchased from OXOID. Kinetic measurements were run at 30° C. in 10 mM MES[2-(N-morpholino)ethanesulfonic acid]buffer (pH 6.8) or 10 mM MES[2-(N-morpholino)ethanesulfonic acid] buffer (pH 6.8), […] BSA and 50 mM sodium bicarbonate. Reactions were performed in 2.5 mL cuvettes with 100 μM nitrocefin and initiated by adding 1.5 nM to 2.5 nM enzyme. The first 180 s of each reaction was used to measure initial rates. Data were evaluated using Microsoft Excel. Concentration dependent inhibition of enzyme was measured using different concentrations of inhibitors resulting from two-fold dilution series. Reaction progress at every concentration of inhibitor was measured in triplicates. IC50 values were calculated using 4-parameter log fits using XL Fit curve fitting software (www.idbs.com) for Excel using the following equation:
(§2) [formula] where y is the remaining enzyme activity (in %) and x is the corresponding concentration. he fitted IC50 parameter is the relative IC50, and is defined as the concentration giving a response half way between the fitted top (B) and bottom (A) of the curve.

[2] = target: T2, CMY-10 β-lactamase (class C) (Klebsiella aerogenes, UniProt Q99QC1); test: Inhibitory activity against β-lactamases (nitrocefin), CMY-10; type: biochemical
T2 construct: MICs of bacterial strains used for extraction of enzymes; endogenous in cells
Protocol: as §1, §2

E. coli ECO200 = test: MIC of strain used for extraction of enzymes, E. coli ECO200 (NDM-1, TEM-1, CTX-M-15, EC (AmpC), OXA-2 type); type: cell-based
K. pneumoniae CL5761 = test: MIC of strain used for extraction of enzymes, K. pneumoniae CL5761 (KPC-3, TEM-216, SHV-5); type: cell-based; settings: BLI: 4 ug/mL
Protocol: MIC90 (μg/mL) is the lowest concentration of an antibiotic that will inhibit the visible growth of 90% of microorganisms after incubation as compared with a control group to which the antibiotic is not treated.
MIC values were measured by the broth microdilution method developed by the Clinical and Laboratory Standards Institute (CLSI) (see CLSI M07-A9, Methods for Dilution Antimicrobial Susceptibility Test for Bacteria that Grow Aerobically; Approved Standard-Ninth Edition (2012): CLSI, Villanova, Pa.). The in vitro antibacterial activity was measured with respect to the following 9 clinical isolates: P. aeruginosa (3 strains); K. pneumoniae (6 strains). The in vitro antibacterial activity of selected compounds was measured with respect to the following 15 clinical isolates: K. pneumoniae (15 strains).

[3] = target: T3, OXA-48 β-lactamase (class D) (Klebsiella pneumoniae, UniProt Q6XEC0); test: Inhibitory activity against β-lactamases (nitrocefin), OXA-48; type: biochemical; settings: 100 μM nitrocefin, 30° C., pH 6.8
T3 construct: MICs of bacterial strains used for extraction of enzymes; endogenous in cells; host or cells: bacterial strain carrying OXA-48 (E. coli according to the earlier reading)
Protocol: as §1, §2

E. aerogenes K9911729 = test: MIC of strain used for extraction of enzymes, E. aerogenes K9911729 (CMY-10, TEM-1, SHV-12, AmpC (DQ478697)); type: cell-based
[4] = target: KPC-3 β-lactamase (class A) (Klebsiella pneumoniae, UniProt Q9F663, H272Y); test: Inhibitory activity against β-lactamases (nitrocefin), KPC-3; type: biochemical, K. pneumoniae
Protocol: as §1, §2

T2 sequence (Q99QC1 24-382): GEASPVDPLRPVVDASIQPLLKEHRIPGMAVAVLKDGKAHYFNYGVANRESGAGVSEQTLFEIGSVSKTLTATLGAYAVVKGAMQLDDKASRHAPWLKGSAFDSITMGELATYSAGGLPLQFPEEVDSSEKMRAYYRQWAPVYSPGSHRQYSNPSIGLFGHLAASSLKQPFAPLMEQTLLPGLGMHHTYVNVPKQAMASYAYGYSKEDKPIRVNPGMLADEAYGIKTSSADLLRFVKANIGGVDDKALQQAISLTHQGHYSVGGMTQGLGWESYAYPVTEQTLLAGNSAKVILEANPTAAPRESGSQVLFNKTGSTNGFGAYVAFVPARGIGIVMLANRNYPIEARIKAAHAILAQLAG
T3 sequence (Q6XEC0 23-265, looked up): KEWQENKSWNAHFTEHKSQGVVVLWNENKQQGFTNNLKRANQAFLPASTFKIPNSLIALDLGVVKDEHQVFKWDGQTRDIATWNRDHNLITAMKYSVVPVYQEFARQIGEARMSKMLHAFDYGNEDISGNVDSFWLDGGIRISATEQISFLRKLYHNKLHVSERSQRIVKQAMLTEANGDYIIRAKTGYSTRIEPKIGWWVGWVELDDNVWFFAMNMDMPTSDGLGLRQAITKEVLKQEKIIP
T1 sequence (C7C422 29-270, looked up): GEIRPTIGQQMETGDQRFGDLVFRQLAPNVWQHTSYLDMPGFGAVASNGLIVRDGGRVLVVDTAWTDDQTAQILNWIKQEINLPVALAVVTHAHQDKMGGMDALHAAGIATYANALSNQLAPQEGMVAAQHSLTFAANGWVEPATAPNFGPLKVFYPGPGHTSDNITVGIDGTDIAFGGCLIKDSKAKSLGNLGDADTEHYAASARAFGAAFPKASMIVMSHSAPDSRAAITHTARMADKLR
Chain of KPC-3 β-lactamase (class A) (Q9F663 25-293 H272Y): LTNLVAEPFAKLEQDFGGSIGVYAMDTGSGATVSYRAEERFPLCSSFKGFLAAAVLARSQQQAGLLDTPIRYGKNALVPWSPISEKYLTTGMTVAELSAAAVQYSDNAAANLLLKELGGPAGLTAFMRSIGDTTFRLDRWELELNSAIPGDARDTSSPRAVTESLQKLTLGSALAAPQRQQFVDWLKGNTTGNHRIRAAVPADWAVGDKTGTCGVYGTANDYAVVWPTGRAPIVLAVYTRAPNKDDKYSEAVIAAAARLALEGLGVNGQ

O=C1N2C[C@@H](CC[C@H]2C2=NO[C@]3(CCNC3)C2)N1OS(=O)(=O)O [Example 17, [(2S,5R)-2-[(5R)-1-oxa-2,7-diazaspiro[4.4]non-2-en-3-yl]-7-oxo-1,6-diazabicyclo[3.2.1]octan-6-yl] hydrogen sulfate]
MIC of Meropenem with BLI (E. coli TOPDXA048; BLI: 4 ug/mL): <0.0312 µg/mL
MIC (E. coli TOPDXA048; Escherichia coli, TOPDXA048, read-out: MIC of LCB10-0200 with BLI): < 0.0312 µg/mL
AUC(0-inf) (Mouse pharmacokinetics; ICR): 31000 ± 500 ng·h/mL
Cmax (Mouse pharmacokinetics; ICR): 64.2 ± 3.88 µg/mL
Tmax (Mouse pharmacokinetics; ICR): 4.8 min
clearance (Mouse pharmacokinetics; ICR): 27 mL/min/kg
half-life (Mouse pharmacokinetics; ICR): 75 ± 9 min
Vd (Mouse pharmacokinetics; ICR, read-out: Vss): 1.81 ± 0.14 L/kg
AUCnorm (Mouse pharmacokinetics): 0.62 ± 0.01 kg·h/L
Cmax, norm (Mouse pharmacokinetics): 1.28 ± 0.08 kg/L
MIC of Meropenem with BLI (E. coli K0519020; BLI: 4 ug/mL): 0.0625 µg/mL
MIC (E. coli K0519020; Escherichia coli, K0519020, read-out: MIC of LCB10-0200 with BLI): < 0.0312 µg/mL
IC50 [1]: 1190 µM
IC50 [2]: 0.185 µM
MIC of Meropenem with BLI (E. coli ECO200; BLI: 4 ug/mL): <0.0312 µg/mL
MIC (E. coli ECO200; Escherichia coli, ECO200, read-out: MIC of LCB10-0200 with BLI): < 0.0312 µg/mL
MIC of Meropenem with BLI (K. pneumoniae CL5761): 0.5 µg/mL
MIC (K. pneumoniae CL5761; Klebsiella pneumoniae, CL5761, read-out: MIC of LCB10-0200 with BLI): 0.125 µg/mL
IC50 [3]: 29.5 µM
MIC of Meropenem with BLI (E. aerogenes K9911729; BLI: 4 ug/mL): <0.0312 µg/mL
MIC (E. aerogenes K9911729; Klebsiella aerogenes, K9911729, read-out: MIC of LCB10-0200 with BLI): < 0.0312 µg/mL
IC50 [4]: 2.74 µM
